Measured values from ChEMBL document CHEMBL1201862, “PubChem BioAssay data set” (2004).
Active and inactive are the calls of the source.

Legend:
[1] = biological target: Phosphomannomutase 2 (Homo sapiens, UniProt O15305); experiment: Counter screen SAR assay for PMM2 inhibitors via a fluorescence intensity assay. [Related pubchem assays (depositor defined):AID1545, AID1574]
[2] = biological target: T1, Mannose-6-phosphate isomerase (Homo sapiens, UniProt P34949); experiment: phosphomannose isomerase inhibition – biochemical, fluorescence intensity, confirmation (AID 1535)
T1 sequence (P34949 whole entry): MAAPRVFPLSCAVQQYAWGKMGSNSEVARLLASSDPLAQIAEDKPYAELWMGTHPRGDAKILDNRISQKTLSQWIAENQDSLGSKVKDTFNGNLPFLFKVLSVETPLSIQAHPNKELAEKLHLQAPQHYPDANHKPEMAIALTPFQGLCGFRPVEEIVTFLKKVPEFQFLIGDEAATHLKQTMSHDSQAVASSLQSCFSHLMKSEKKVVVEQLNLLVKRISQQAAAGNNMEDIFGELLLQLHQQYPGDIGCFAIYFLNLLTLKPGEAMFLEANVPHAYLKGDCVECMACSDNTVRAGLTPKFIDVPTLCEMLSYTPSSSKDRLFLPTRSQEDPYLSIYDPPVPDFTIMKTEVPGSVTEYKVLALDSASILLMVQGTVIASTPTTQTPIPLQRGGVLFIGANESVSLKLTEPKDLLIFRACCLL

[3] = biological target: T2, Corticotropin-releasing factor receptor 2/Corticotropin-releasing factor-binding protein (Homo sapiens, UniProt P24387+Q13324); experiment: Dose Response confirmation of uHTS hits for small molecule antagonists of the CRF-binding protein and CRF-R2 receptor complex.; type: functional; settings: read-out: IC50_Mean
T2 sequence (Q13324 whole entry): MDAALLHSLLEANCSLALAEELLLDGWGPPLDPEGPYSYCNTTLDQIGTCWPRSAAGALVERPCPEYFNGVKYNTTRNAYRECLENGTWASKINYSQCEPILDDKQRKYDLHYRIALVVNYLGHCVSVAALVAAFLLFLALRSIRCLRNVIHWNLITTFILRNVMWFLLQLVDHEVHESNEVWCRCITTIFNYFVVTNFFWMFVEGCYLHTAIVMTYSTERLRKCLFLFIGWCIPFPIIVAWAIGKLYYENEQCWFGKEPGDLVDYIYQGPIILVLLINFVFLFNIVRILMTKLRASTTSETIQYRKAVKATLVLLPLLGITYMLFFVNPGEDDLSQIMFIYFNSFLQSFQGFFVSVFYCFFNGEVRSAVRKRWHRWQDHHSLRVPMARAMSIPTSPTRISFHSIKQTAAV
T2 sequence (P24387 whole entry): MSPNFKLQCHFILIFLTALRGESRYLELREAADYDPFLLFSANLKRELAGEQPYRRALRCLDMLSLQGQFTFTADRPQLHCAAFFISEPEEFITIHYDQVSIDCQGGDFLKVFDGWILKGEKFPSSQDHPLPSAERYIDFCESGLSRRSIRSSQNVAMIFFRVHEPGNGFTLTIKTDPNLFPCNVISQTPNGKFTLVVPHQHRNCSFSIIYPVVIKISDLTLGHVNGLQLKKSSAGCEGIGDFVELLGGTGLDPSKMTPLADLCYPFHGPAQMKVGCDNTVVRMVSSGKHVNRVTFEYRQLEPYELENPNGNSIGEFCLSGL

[4] = test system: HEK293; experiment: cells; settings: Homo sapiens
[5] = test system: HEK293; experiment: NOD2 signaling inhibitors in MDP-stimulated cells, cell-based, uHTS, luminescence (AID 2001); type: functional; settings: Homo sapiens
[6] = biological target: Nucleotide-binding oligomerization domain-containing protein 1 (Homo sapiens, UniProt Q9Y239); experiment: blockers of NOD1 pathway activity – revised, SAR follow-up (AID 2333); type: functional
[7] = test system: HEK293; experiment: inhibition of NOD1-driven NF-kB reporter – cell-based, luminescence, uHTS, primary screen (AID 1578); type: functional; settings: Homo sapiens
[8] = biological target: T2, Corticotropin-releasing factor receptor 2/Corticotropin-releasing factor-binding protein; experiment: activators of CRF receptor 2 with binding protein – uHTS hits, confirmation (AID 602473); type: functional; settings: read-out: EC50_Mean
[9] = test system: HEK293; experiment: cells; type: functional, cell-based; settings: Homo sapiens
[10] = test system: HEK293; experiment: cells; type: functional, cell-based; settings: Homo sapiens; remark: listed apart in the source
[11] = blockers of CRF-binding protein–CRF-R2 complex – cell-based, uHTS hits, 384-well, dose response (AID 651639); type: functional, Homo sapiens; settings: read-out: IC50_Mean
[12] = biological target: Ephrin type-A receptor 4 (Mus musculus, UniProt Q03137); experiment: EphA4 ligand-binding antagonists – biochemical, colorimetric, mouse EphA4, primary screen (AID 689); type: functional
[13] = biological target: ORF 73 (Human herpesvirus 8, UniProt O40947); experiment: KSHV LANA DNA-binding disruption – biochemical, fluorescence polarization, cherry-picked samples, dose response (AID 504725); parameters: species or system Human gammaherpesvirus 8;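 also: fluorescence polarization of a labeled DNA duplex reporting LANA DNA binding; potency is for inhibitors that block LANA binding to the DNA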
[14] = test system: HeLa; experiment: viability loss in HeLa cells – cell-based, 24 h, cherry-picked samples, cytotoxicity control, dose response (AID 504726); type: functional; settings: Homo sapiens;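 also: potency for cytotoxicity as loss of luminescence signal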
[15] = biological target: UDP-galactopyranose mutase (Mycobacterium tuberculosis, UniProt P9WIQ1); experiment: Inhibitors of Mycobacterium tuberculosis UDP-galactopyranose mutase (UGM) enzyme Measured in Biochemical System Using Plate Reader - 2105-02_Inhibitor_Dose_CherryPick_Activity. [Related pubchem assays (depositor defined):AID504439]
[16] = biological target: Cytochrome P450 2D6 (Homo sapiens, UniProt P10635);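 also: CYP2D6 member of a cytochrome P450 panel assay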
Cytochrome P450 2D6, sequence (P10635 whole entry): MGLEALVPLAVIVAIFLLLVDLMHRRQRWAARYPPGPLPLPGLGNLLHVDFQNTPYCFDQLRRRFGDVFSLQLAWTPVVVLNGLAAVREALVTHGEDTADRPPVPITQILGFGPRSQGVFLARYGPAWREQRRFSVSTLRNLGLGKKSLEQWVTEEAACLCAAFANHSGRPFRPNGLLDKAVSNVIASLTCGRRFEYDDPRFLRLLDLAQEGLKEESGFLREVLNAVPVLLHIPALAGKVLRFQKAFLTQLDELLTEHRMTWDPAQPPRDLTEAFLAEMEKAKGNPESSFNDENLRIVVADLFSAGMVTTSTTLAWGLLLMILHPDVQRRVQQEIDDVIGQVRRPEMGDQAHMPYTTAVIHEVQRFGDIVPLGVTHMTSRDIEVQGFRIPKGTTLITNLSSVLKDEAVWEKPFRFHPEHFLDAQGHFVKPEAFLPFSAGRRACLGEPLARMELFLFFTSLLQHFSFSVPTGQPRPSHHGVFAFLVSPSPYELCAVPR

ORF 73, sequence (O40947 whole entry): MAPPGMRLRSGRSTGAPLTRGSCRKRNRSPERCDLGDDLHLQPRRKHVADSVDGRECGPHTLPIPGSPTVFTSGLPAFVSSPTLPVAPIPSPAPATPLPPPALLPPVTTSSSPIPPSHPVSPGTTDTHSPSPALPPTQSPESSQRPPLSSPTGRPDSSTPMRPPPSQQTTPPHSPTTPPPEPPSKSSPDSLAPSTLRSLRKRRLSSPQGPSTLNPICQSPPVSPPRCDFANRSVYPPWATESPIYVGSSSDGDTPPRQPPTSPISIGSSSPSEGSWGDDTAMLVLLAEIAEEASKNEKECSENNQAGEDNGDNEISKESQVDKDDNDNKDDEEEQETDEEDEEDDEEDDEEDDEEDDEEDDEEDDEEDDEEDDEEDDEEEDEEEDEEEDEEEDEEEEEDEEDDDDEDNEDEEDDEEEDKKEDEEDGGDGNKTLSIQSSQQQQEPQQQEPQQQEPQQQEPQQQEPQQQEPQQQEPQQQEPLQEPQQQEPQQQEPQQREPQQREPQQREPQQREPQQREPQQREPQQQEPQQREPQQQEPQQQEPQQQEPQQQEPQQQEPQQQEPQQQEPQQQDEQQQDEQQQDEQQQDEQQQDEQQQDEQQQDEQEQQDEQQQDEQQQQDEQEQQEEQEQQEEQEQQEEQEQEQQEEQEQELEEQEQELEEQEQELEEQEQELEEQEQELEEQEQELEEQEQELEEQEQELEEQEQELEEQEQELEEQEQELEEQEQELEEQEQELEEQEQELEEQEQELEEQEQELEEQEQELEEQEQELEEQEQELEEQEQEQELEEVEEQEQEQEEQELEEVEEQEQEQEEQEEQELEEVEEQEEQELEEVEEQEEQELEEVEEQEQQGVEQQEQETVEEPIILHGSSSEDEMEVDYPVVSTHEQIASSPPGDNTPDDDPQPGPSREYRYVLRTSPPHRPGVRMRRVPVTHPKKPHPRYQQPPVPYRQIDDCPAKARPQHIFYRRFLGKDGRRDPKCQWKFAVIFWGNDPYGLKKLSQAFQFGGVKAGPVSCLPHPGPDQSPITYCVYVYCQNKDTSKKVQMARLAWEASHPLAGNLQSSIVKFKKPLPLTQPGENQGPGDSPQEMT
Nucleotide-binding oligomerization domain-containing protein 1, sequence (Q9Y239 whole entry, the tested form may be a part): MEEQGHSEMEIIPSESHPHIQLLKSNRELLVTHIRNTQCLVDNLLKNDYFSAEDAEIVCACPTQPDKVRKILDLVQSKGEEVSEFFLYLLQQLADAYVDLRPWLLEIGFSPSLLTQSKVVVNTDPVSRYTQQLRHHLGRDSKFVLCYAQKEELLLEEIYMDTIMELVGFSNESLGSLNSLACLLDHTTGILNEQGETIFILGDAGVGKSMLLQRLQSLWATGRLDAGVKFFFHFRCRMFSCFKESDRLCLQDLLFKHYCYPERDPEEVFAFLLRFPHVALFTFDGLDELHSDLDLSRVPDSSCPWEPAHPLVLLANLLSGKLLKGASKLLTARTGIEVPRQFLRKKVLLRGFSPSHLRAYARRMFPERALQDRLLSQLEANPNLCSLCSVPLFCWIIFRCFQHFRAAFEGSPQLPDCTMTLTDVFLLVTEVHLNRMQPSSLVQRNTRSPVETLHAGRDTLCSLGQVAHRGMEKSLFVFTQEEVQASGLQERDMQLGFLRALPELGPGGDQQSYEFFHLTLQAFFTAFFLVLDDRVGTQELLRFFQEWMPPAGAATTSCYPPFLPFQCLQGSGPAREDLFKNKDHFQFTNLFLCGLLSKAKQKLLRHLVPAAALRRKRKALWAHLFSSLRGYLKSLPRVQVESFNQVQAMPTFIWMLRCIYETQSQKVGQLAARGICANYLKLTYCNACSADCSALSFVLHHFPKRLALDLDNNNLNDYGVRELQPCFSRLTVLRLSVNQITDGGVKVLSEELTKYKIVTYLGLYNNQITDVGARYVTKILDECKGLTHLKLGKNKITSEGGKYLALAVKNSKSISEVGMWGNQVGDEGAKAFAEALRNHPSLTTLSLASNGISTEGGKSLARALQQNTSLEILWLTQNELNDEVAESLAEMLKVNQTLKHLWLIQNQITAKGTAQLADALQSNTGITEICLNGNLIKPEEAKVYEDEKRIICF
Phosphomannomutase 2, sequence (O15305 whole entry): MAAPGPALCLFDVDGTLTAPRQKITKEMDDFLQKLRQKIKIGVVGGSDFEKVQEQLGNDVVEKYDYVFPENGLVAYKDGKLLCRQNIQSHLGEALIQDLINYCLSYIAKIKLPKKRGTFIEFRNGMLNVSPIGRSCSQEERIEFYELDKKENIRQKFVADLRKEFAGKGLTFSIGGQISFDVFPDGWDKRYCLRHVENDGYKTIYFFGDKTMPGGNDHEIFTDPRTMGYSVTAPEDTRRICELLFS
UDP-galactopyranose mutase, sequence (P9WIQ1 whole entry): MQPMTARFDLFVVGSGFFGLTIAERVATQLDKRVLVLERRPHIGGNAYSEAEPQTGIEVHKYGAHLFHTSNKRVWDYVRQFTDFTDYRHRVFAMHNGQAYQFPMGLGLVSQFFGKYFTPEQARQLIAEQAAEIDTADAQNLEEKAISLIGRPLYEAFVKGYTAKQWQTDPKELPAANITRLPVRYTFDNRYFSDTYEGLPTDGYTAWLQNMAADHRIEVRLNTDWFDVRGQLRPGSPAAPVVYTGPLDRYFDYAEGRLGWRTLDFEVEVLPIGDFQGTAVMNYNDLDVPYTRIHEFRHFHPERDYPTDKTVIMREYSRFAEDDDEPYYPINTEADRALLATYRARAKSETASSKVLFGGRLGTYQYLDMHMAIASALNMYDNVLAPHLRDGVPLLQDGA
Ephrin type-A receptor 4, sequence (Q03137 whole entry): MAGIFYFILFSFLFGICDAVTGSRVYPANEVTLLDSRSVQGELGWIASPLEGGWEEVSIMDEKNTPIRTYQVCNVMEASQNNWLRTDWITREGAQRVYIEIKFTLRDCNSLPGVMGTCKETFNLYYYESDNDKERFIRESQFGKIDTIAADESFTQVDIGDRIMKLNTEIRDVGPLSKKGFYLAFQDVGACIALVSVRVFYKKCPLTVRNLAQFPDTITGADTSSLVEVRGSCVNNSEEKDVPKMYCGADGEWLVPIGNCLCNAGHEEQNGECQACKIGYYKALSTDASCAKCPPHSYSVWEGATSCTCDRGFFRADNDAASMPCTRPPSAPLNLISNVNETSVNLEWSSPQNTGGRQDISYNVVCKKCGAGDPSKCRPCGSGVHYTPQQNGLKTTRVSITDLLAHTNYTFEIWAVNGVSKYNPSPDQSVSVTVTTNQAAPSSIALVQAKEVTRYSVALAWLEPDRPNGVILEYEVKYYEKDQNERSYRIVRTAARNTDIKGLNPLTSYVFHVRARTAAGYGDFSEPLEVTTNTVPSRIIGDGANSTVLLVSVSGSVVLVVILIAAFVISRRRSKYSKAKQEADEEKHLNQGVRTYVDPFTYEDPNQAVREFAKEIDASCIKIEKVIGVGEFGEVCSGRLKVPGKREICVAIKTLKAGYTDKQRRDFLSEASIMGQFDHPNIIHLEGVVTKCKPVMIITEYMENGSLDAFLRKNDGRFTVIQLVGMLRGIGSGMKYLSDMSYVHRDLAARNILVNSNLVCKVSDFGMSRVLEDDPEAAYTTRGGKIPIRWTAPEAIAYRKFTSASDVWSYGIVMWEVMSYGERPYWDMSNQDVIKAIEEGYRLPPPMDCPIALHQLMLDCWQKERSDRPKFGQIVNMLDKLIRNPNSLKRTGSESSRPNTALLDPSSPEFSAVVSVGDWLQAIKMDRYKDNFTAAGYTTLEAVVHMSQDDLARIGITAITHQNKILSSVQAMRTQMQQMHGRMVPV

Structure (SMILES): COc1cc(N=c2ssnc2Cl)cc(OC)c1OC
- IC50 [1]: > 100 µM (inactive)
- IC50 [2]: 2.91 µM (active)

Structure (SMILES): O=C(Nc1nc2c(F)cc(F)cc2s1)c1ccc([N+](=O)[O-])o1
- IC50 [3]: 4.95 µM (active)
- IC50 [4]: > 20 µM (inactive)
- IC50 [5]: 15.5 µM (inactive)
- IC50 [6]: 7.18 µM (active)
- EC50 [7]: 12 µM (active)
- EC50 [8]: > 53 µM (inactive)
- IC50 [9]: > 20 µM (inactive)
- IC50 [10]: > 20 µM (inactive)
- IC50 [11]: > 20 µM (inactive)

Structure (SMILES): CCCCCn1nc(-c2ccccc2)c2nc3ccccc3nc21
- IC50 [12]: 6.11 µM (active)
- AC50 [13]: 56.5 µM (active)
- EC50 [8]: 4.97 µM (active)
- AC50 [14]: > 350 µM (inactive)
- AC50 [15]: 31.7 µM (active)

Structure (SMILES): CCCS(=O)(=O)N1CCCC(C(=O)NCCCOCC)C1 (configuration not stated)
- AC50 [16]: inconclusive
